# According to PubChem BioAssay AID1259411 (Chemical Carcinogenesis Research Information System (CCRIS), 2018):
# The source made the active and inactive calls. No rule for the calls is given here.
# System: rodent carcinogenicity bioassays, tumor incidence
# Test: CCRIS carcinogenicity studies
# Conditions: Dose: 0, Dose: 0
# Method in brief: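 NCI-built, expert-reviewed records of carcinogenicity and related test outcomes (mutagenicity, tumor promotion/inhibition) compiled from published and report sources, historical span 1985-2011, not updated.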
smiles,measurement,setting,value
OCCNCCO,carcinogen call,"Species: MOUSE, Strain/Sex: B6C3F1/FEMALE, Route: DERMAL, 40, 80, 160 MG/KG BW IN ETHANOL 5 D/WK FOR 103 WK (STUDY DURATION: 103 WK), 40, 80, 160 MG/KG BW IN ETHANOL 5 D/WK FOR 103 WK (STUDY DURATION: 103 WK), Tumor Site: Type of Lesion: LIVER: HEPATOCELLULAR ADENOMA, HEPATOCELLULAR CARCINOMA, OR HEPATOBLASTOMA",active; positive
same,carcinogen call,"Species: MOUSE, Strain/Sex: B6C3F1/MALE, Route: DERMAL, 40, 80, 160 MG/KG BW IN ETHANOL 5 D/WK FOR 103 WK (STUDY DURATION: 103 WK), 40, 80, 160 MG/KG BW IN ETHANOL 5 D/WK FOR 103 WK (STUDY DURATION: 103 WK), Tumor Site: Type of Lesion: LIVER: HEPATOCELLULAR ADENOMA, HEPATOCELLULAR CARCINOMA, OR HEPATOBLASTOMA",active; positive
same,carcinogen call,"Species: RAT, Strain/Sex: F344/N/FEMALE, Route: DERMAL, 8, 16, 32 MG/KG BW IN ETHANOL 5 D/WK FOR 103 WK (STUDY DURATION: 103 WK), 8, 16, 32 MG/KG BW IN ETHANOL 5 D/WK FOR 103 WK (STUDY DURATION: 103 WK)",inactive; negative
same,carcinogen call,"Species: RAT, Strain/Sex: F344/N/MALE, Route: DERMAL, 16, 32, 64 MG/KG BW IN ETHANOL 5 D/WK FOR 103 WK (STUDY DURATION: 103 WK), 16, 32, 64 MG/KG BW IN ETHANOL 5 D/WK FOR 103 WK (STUDY DURATION: 103 WK)",inactive; negative
CC1CN(N=O)CC(C)N1C (configuration not stated),carcinogen call,"Species: RAT, Strain/Sex: F344/FEMALE, Route: ORAL, 110 MG/L IN DRINKING WATER 5 D/WK FOR 26 WK, STUDY DURATION: 40-50 WK, 110 MG/L IN DRINKING WATER 5 D/WK FOR 26 WK, STUDY DURATION: 40-50 WK, Tumor Site: Type of Lesion: THYMUS GLAND: LYMPHOMA OR LEUKEMIA, MULTIPLE SITES: LYMPHOMA OR LEUKEMIA, NASAL CAVITY: CARCINOMA, Tumor Site: Type of Lesion: THYMUS GLAND: LYMPHOMA OR LEUKEMIA, MULTIPLE SITES: LYMPHOMA OR LEUKEMIA, NASAL CAVITY: CARCINOMA",active; positive
O=[N+]([O-])c1cc(O)c2ccc3cccc4ccc1c2c34,carcinogen call,"Species: RAT, Strain/Sex: STRAIN-CD/FEMALE, Route: SUBCUTANEOUS, 63 UMOL (TOTAL DOSE) ADMINISTERED OVER 8 WK BEGINNING WITHIN 24 HR OF BIRTH (STUDY DURATION: 86 WK)",inactive; negative
O=C(c1ccccc1)C(O)c1ccccc1 (configuration not stated),carcinogen call,"Species: MOUSE, Strain/Sex: B6C3F1/FEMALE, Route: ORAL, 2500, 5000 PPM IN DIET, 2500, 5000 PPM IN DIET",inactive; negative
same,carcinogen call,"Species: MOUSE, Strain/Sex: B6C3F1/MALE, Route: ORAL, 2500, 5000 PPM IN DIET, 2500, 5000 PPM IN DIET",inactive; negative
same,carcinogen call,"Species: RAT, Strain/Sex: F344/FEMALE, Route: ORAL, 250, 500 PPM IN DIET, 250, 500 PPM IN DIET",inactive; negative
same,carcinogen call,"Species: RAT, Strain/Sex: F344/MALE, Route: ORAL, 125, 250 PPM IN DIET, 125, 250 PPM IN DIET",inactive; negative
CC1(C)COC1=O,carcinogen call,"Species: MOUSE, Strain/Sex: B6C3F1/FEMALE, Route: GAVAGE, 75, 150 MG/KG, 75, 150 MG/KG",inactive; negative
same,carcinogen call,"Species: MOUSE, Strain/Sex: B6C3F1/MALE, Route: GAVAGE, 75, 150 MG/KG, 75, 150 MG/KG",inactive; negative
same,carcinogen call,"Species: RAT, Strain/Sex: F344/FEMALE, Route: GAVAGE, 150, 300 MG/KG, 150, 300 MG/KG, Tumor Site: Type of Lesion: STOMACH: SQUAMOUS CELL PAPILLOMA OR SQUAMOUS CELL CARCINOMA, UTERUS: ENDOMETRIAL STROMAL POLYP",active; positive
same,carcinogen call,"Species: RAT, Strain/Sex: F344/MALE, Route: GAVAGE, 150, 300 MG/KG, 150, 300 MG/KG, Tumor Site: Type of Lesion: STOMACH: SQUAMOUS CELL PAPILLOMA OR SQUAMOUS CELL CARCINOMA, TESTES: INTERSTITIAL CELL TUMOR",active; positive
O=[N+]([O-])c1ccc(NCCO)c(OCCO)c1,carcinogen call,"Species: MOUSE, Strain/Sex: B6C3F1/FEMALE, Route: ORAL, 5000, 10000 PPM IN FEED 7 D/WK FOR 104 WK (STUDY DURATION: 2 YR), 5000, 10000 PPM IN FEED 7 D/WK FOR 104 WK (STUDY DURATION: 2 YR)",inactive; negative
same,carcinogen call,"Species: MOUSE, Strain/Sex: B6C3F1/MALE, Route: ORAL, 5000, 10000 PPM IN FEED 7 D/WK FOR 104 WK (STUDY DURATION: 2 YR), 5000, 10000 PPM IN FEED 7 D/WK FOR 104 WK (STUDY DURATION: 2 YR)",inactive; negative
same,carcinogen call,"Species: RAT, Strain/Sex: F344/FEMALE, Route: ORAL, 5000, 10000 PPM IN FEED 7 D/WK FOR 104 WK (STUDY DURATION: 2 YR), 5000, 10000 PPM IN FEED 7 D/WK FOR 104 WK (STUDY DURATION: 2 YR)",inactive; negative
same,carcinogen call,"Species: RAT, Strain/Sex: F344/MALE, Route: ORAL, 5000, 10000 PPM IN FEED 7 D/WK FOR 104 WK (STUDY DURATION: 105 WK), 5000, 10000 PPM IN FEED 7 D/WK FOR 104 WK (STUDY DURATION: 105 WK), Tumor Site: Type of Lesion: PITUITARY GLAND (PARS DISTALIS): ADENOMA",equivocal
Nc1ccccc1-c1ccccc1,carcinogen call,"Species: MOUSE, Strain/Sex: B6C3F1/FEMALE, Route: ORAL, 1000, 3000 PPM IN DIET FOR 103 WK (STUDY DURATION: 103 WK), 1000, 3000 PPM IN DIET FOR 103 WK (STUDY DURATION: 103 WK), Tumor Site: Type of Lesion: BLOOD VESSELS: HEMANGIOMA, HEMANGIOSARCOMA",active; positive
same,carcinogen call,"Species: MOUSE, Strain/Sex: B6C3F1/MALE, Route: ORAL, 1000, 3000 PPM IN DIET FOR 103 WK (STUDY DURATION: 103 WK), 1000, 3000 PPM IN DIET FOR 103 WK (STUDY DURATION: 103 WK), Tumor Site: Type of Lesion: SPLEEN: HEMANGIOSARCOMA",equivocal
same,carcinogen call,"Species: RAT, Strain/Sex: F344/FEMALE, Route: ORAL, 1000, 3000 PPM IN DIET FOR 103 WK (STUDY DURATION: 103 WK), 1000, 3000 PPM IN DIET FOR 103 WK (STUDY DURATION: 103 WK)",inactive; negative
same,carcinogen call,"Species: RAT, Strain/Sex: F344/MALE, Route: ORAL, 1000, 3000 PPM IN DIET FOR 103 WK (STUDY DURATION: 103 WK), 1000, 3000 PPM IN DIET FOR 103 WK (STUDY DURATION: 103 WK)",inactive; negative
